In ChEMBL document CHEMBL1255301, “Activity of Tigecycline against Coryneform Bacteria of Clinical Interest and Listeria monocytogenes” (2008):
Converted amounts (≈) assume the structure as drawn.

Key:
Type in all cases: functional
[1] = system: Corynebacterium amycolatum; test: Antimicrobial activity against Corynebacterium amycolatum isolates by CLSI M45-A protocol based microdilution method
[2] = system: Corynebacterium jeikeium; test: Antimicrobial activity against Corynebacterium jeikeium isolates by CLSI M45-A protocol based microdilution method
[3] = system: Corynebacterium minutissimum; test: Antimicrobial activity against Corynebacterium minutissimum isolates by CLSI M45-A protocol based microdilution method
[4] = system: Corynebacterium pseudodiphtheriticum; test: Antimicrobial activity against Corynebacterium pseudodiphtheriticum isolates by CLSI M45-A protocol based microdilution method
[5] = system: Corynebacterium striatum; test: Antimicrobial activity against Corynebacterium striatum isolates by CLSI M45-A protocol based microdilution method
[6] = system: Corynebacterium urealyticum; test: Antimicrobial activity against Corynebacterium urealyticum isolates by CLSI M45-A protocol based microdilution method
[7] = system: Corynebacterium xerosis; test: Antimicrobial activity against Corynebacterium xerosis isolates by CLSI M45-A protocol based microdilution method
[8] = system: Arcanobacterium haemolyticum; test: Antimicrobial activity against Arcanobacterium haemolyticum isolates by CLSI M45-A protocol based microdilution method
[9] = system: Prescottella equi; test: Antimicrobial activity against Rhodococcus equi isolates by CLSI M45-A protocol based microdilution method
[10] = system: Listeria monocytogenes; test: Antimicrobial activity against Listeria monocytogenes isolates by CLSI M45-A protocol based microdilution method
[11] = Rhodococcus (subgen. Prescottella) equi

Compound	MIC50 [1]	MIC90 [1]	MIC50 [2]	MIC90 [2]	MIC50 [3]	MIC50 [4]	MIC90 [4]	MIC50 [5]	MIC90 [5]	MIC50 [6]	MIC90 [6]	MIC50 [7]	MIC50 [8]	MIC90 [8]	MIC50 [9, 11]	MIC90 [9, 11]	MIC50 [10]	MIC90 [10]	MIC [2]	MIC [8]	further results
CO/N=C(\C(=O)N[C@@H]1C(=O)N2C(C(=O)O)=C(COC(N)=O)CS[C@H]12)c1ccco1 [CEFUROXIME]	0.5 µg/mL (≈ 1.18 µM)	2 µg/mL (≈ 4.71 µM)	> 32 µg/mL	> 32 µg/mL	0.5 µg/mL (≈ 1.18 µM)	0.06 µg/mL (≈ 0.141 µM)	0.125 µg/mL (≈ 0.295 µM)	1 µg/mL (≈ 2.36 µM)	2 µg/mL (≈ 4.71 µM)	> 32 µg/mL	> 32 µg/mL	2 µg/mL (≈ 4.71 µM)	0.125 µg/mL (≈ 0.295 µM)	0.25 µg/mL (≈ 0.589 µM)	8 µg/mL (≈ 18.9 µM)	16 µg/mL (≈ 37.7 µM)	> 32 µg/mL	> 32 µg/mL			
CCC[C@@H]1C[C@@H](C(=O)N[C@@H]([C@H]2O[C@H](SC)[C@H](O)[C@@H](O)[C@H]2O)[C@H](C)Cl)N(C)C1 [CLINDAMYCIN]	> 16 µg/mL	> 16 µg/mL	> 16 µg/mL	> 16 µg/mL	> 16 µg/mL	> 16 µg/mL	> 16 µg/mL	> 16 µg/mL	> 16 µg/mL	> 16 µg/mL	> 16 µg/mL	> 16 µg/mL	≤ 0.015 µg/mL	≤ 0.015 µg/mL	2 µg/mL (≈ 4.71 µM)	8 µg/mL (≈ 18.8 µM)	1 µg/mL (≈ 2.35 µM)	2 µg/mL (≈ 4.71 µM)	> 16 µg/mL	≤ 0.015 µg/mL	
C[C@H]1c2cccc(O)c2C(=O)C2=C(O)[C@]3(O)C(=O)C(C(N)=O)=C(O)[C@@H](N(C)C)[C@@H]3[C@@H](O)[C@@H]21.O [DOXYCYCLINE]	0.06 µg/mL	0.5 µg/mL	0.03 µg/mL	1 µg/mL	0.25 µg/mL	0.125 µg/mL	0.125 µg/mL	8 µg/mL	> 16 µg/mL	0.125 µg/mL	4 µg/mL	0.5 µg/mL	0.125 µg/mL	8 µg/mL	1 µg/mL	1 µg/mL	0.125 µg/mL	0.125 µg/mL			
C[C@H]1COc2c(N3CCN(C)CC3)c(F)cc3c(=O)c(C(=O)O)cn1c23.C[C@H]1COc2c(N3CCN(C)CC3)c(F)cc3c(=O)c(C(=O)O)cn1c23.O [LEVOFLOXACIN]	> 32 µg/mL	> 32 µg/mL	4 µg/mL	> 32 µg/mL	0.06 µg/mL	0.25 µg/mL	4 µg/mL	> 32 µg/mL	> 32 µg/mL	> 32 µg/mL	> 32 µg/mL	32 µg/mL	0.5 µg/mL	0.5 µg/mL	1 µg/mL	2 µg/mL	0.5 µg/mL	1 µg/mL			
CN(C)c1ccc(O)c2c1C[C@H]1C[C@H]3[C@H](N(C)C)C(O)=C(C(N)=O)C(=O)[C@@]3(O)C(O)=C1C2=O [MINOCYCLINE]	0.06 µg/mL (≈ 0.131 µM)	0.25 µg/mL (≈ 0.546 µM)	0.06 µg/mL (≈ 0.131 µM)	0.25 µg/mL (≈ 0.546 µM)	≤ 0.03 µg/mL	0.06 µg/mL (≈ 0.131 µM)	0.06 µg/mL (≈ 0.131 µM)	4 µg/mL (≈ 8.74 µM)	8 µg/mL (≈ 17.5 µM)	0.06 µg/mL (≈ 0.131 µM)	0.5 µg/mL (≈ 1.09 µM)	0.25 µg/mL (≈ 0.546 µM)	≤ 0.03 µg/mL	4 µg/mL (≈ 8.74 µM)	0.25 µg/mL (≈ 0.546 µM)	0.25 µg/mL (≈ 0.546 µM)	0.06 µg/mL (≈ 0.131 µM)	0.06 µg/mL (≈ 0.131 µM)	0.06 µg/mL (≈ 0.131 µM)	≤ 0.03 µg/mL	MIC [3]: ≤ 0.03 µg/mL
CN(C)[C@@H]1C(O)=C(C(N)=O)C(=O)[C@@]2(O)C(O)=C3C(=O)c4c(O)cccc4[C@@](C)(O)[C@H]3C[C@@H]12 [TETRACYCLINE]	0.125 µg/mL (≈ 0.281 µM)	0.5 µg/mL (≈ 1.13 µM)	0.06 µg/mL (≈ 0.135 µM)		0.25 µg/mL (≈ 0.563 µM)	0.125 µg/mL (≈ 0.281 µM)	0.25 µg/mL (≈ 0.563 µM)	16 µg/mL (≈ 36 µM)	> 32 µg/mL	0.25 µg/mL (≈ 0.563 µM)	16 µg/mL (≈ 36 µM)	0.5 µg/mL (≈ 1.13 µM)	0.125 µg/mL (≈ 0.281 µM)	16 µg/mL (≈ 36 µM)	8 µg/mL (≈ 18 µM)	8 µg/mL (≈ 18 µM)	0.5 µg/mL (≈ 1.13 µM)	0.5 µg/mL (≈ 1.13 µM)	0.06 µg/mL (≈ 0.135 µM)		
CN(C)c1cc(NC(=O)CNC(C)(C)C)c(O)c2c1C[C@H]1C[C@H]3[C@H](N(C)C)C(O)=C(C(N)=O)C(=O)[C@@]3(O)C(O)=C1C2=O [TIGECYCLINE]	0.125 µg/mL (≈ 0.213 µM)	0.25 µg/mL (≈ 0.427 µM)	≤ 0.015 µg/mL	0.03 µg/mL (≈ 0.0512 µM)	≤ 0.015 µg/mL	≤ 0.015 µg/mL	0.03 µg/mL (≈ 0.0512 µM)	0.5 µg/mL (≈ 0.854 µM)	1 µg/mL (≈ 1.71 µM)	0.03 µg/mL (≈ 0.0512 µM)	0.06 µg/mL (≈ 0.102 µM)	0.125 µg/mL (≈ 0.213 µM)	≤ 0.015 µg/mL	≤ 0.015 µg/mL	0.25 µg/mL (≈ 0.427 µM)	0.5 µg/mL (≈ 0.854 µM)	0.06 µg/mL (≈ 0.102 µM)	0.125 µg/mL (≈ 0.213 µM)	≤ 0.015 µg/mL	≤ 0.015 µg/mL	MIC [3]: ≤ 0.003 µg/mL; MIC [4]: ≤ 0.015 µg/mL
CN[C@H](CC(C)C)C(=O)N[C@H]1C(=O)N[C@@H](CC(N)=O)C(=O)N[C@H]2C(=O)N[C@H]3C(=O)N[C@H](C(=O)N[C@H](C(=O)O)c4cc(O)cc(O)c4-c4cc3ccc4O)[C@H](O)c3ccc(c(Cl)c3)Oc3cc2cc(c3O[C@@H]2O[C@H](CO)[C@@H](O)[C@H](O)[C@H]2O[C@H]2C[C@](C)(N)[C@H](O)[C@H](C)O2)Oc2ccc(cc2Cl)[C@H]1O [VANCOMYCIN]	0.25 µg/mL (≈ 0.173 µM)	0.5 µg/mL (≈ 0.345 µM)	0.06 µg/mL (≈ 0.0414 µM)	0.25 µg/mL (≈ 0.173 µM)	0.25 µg/mL (≈ 0.173 µM)	0.25 µg/mL (≈ 0.173 µM)	0.25 µg/mL (≈ 0.173 µM)	0.25 µg/mL (≈ 0.173 µM)	0.5 µg/mL (≈ 0.345 µM)	0.25 µg/mL (≈ 0.173 µM)	0.5 µg/mL (≈ 0.345 µM)	0.25 µg/mL (≈ 0.173 µM)	0.25 µg/mL (≈ 0.173 µM)	0.5 µg/mL (≈ 0.345 µM)	0.5 µg/mL (≈ 0.345 µM)	0.5 µg/mL (≈ 0.345 µM)	0.5 µg/mL (≈ 0.345 µM)	1 µg/mL (≈ 0.69 µM)	0.06 µg/mL (≈ 0.0414 µM)		
GENTAMICIN	8 µg/mL	16 µg/mL	> 32 µg/mL	> 32 µg/mL	0.06 µg/mL	0.06 µg/mL	0.06 µg/mL	2 µg/mL	8 µg/mL	> 32 µg/mL	> 32 µg/mL	8 µg/mL	0.5 µg/mL	0.5 µg/mL			0.25 µg/mL	0.125 µg/mL			MIC [3]: < 0.03 µg/mL; MIC [7]: < 0.03 µg/mL; MIC50 [9]: 0.5 µg/mL; MIC90 [9]: 1 µg/mL
